Measurements from the NIST ThermoML archive (doi:10.1016/j.tca.2011.06.020).

Legend:
[1] = excess molar enthalpy (molar enthalpy of mixing); xn = mol fraction of the nth substance listed; conditions: 308.15 K, 101 kPa, Liquid, Drop calorimetry
[2] = xn = mol fraction of the nth substance listed; conditions: 101 kPa, Liquid; for speed of sound: Sing-around technique in a fixed-path interferometer; for mass density: Vibrating tube method

CNC=O [N-methylformamide] + C1CCOCC1
[1]
Conditions	excess molar enthalpy [kcal/mol]
x2 = 0.0662	0.00815
x2 = 0.1805	0.0293
x2 = 0.2254	0.0372
x2 = 0.2892	0.0493
x2 = 0.3252	0.0564
x2 = 0.3743	0.064
x2 = 0.4016	0.0666
x2 = 0.4724	0.0749
x2 = 0.5114	0.0772
x2 = 0.5562	0.0781
x2 = 0.5923	0.0776
x2 = 0.6242	0.0747
x2 = 0.6675	0.0727
x2 = 0.7153	0.0658
x2 = 0.7576	0.0603
x2 = 0.7901	0.0533
x2 = 0.8152	0.0482
x2 = 0.8676	0.0367

[2]
Conditions	mass density, 298.15 K [kg/m3]	mass density, 303.15 K [kg/m3]	mass density, 308.15 K [kg/m3]	speed of sound, 298.15 K [m/s]	speed of sound, 303.15 K [m/s]	speed of sound, 308.15 K [m/s]
x2 = 0	999.004	994.653	990.302	1432.9	1417.7	1402.5
x2 = 0.0822	984.359	979.949	975.601	1411.8	1396.4	1380.7
x2 = 0.1587	971.886	967.407	963.009	1394	1377.9	1361.7
x2 = 0.2344	960.487	955.945	951.454	1377.9	1361	1344.4
x2 = 0.2633	956.359	951.788	947.263	1372.1	1355	1338.1
x2 = 0.3005	951.208	946.607	942.041	1365	1347.4	1330.3
x2 = 0.3572	943.711	939.057	934.409	1354.5	1336.5	1319.1
x2 = 0.3814	940.623	935.944	931.277	1350.3	1332	1314.5
x2 = 0.4163	936.288	931.584	926.867	1344.4	1325.8	1308
x2 = 0.4334	934.212	929.494	924.763	1341.6	1322.9	1305
x2 = 0.4851	928.124	923.354	918.566	1333.4	1314.3	1296.1
x2 = 0.5122	925.036	920.247	915.428	1329.3	1310	1291.6
x2 = 0.5693	918.752	913.91	909.049	1321	1301.3	1282.6
x2 = 0.6064	914.817	909.949	905.053	1315.9	1296	1277
x2 = 0.6571	909.625	904.722	899.79	1309.1	1289	1269.6
x2 = 0.6988	905.507	900.569	895.605	1303.8	1283.5	1263.7
x2 = 0.7315	902.361	897.401	892.421	1299.8	1279.3	1259.3
x2 = 0.7743	898.361	893.366	888.365	1294.7	1273.9	1253.5
x2 = 0.8468	891.856	886.811	881.763	1286.4	1265.1	1244.1
